Common to all, as to experiment: receptor binding assay (NIMH PDSP)
For one assay, the target named is T1, 5-HT1A (Homo sapiens, UniProt P08908).
T1 construct: gene HTR1A; cloned receptor, NIMH PDSP panel
T1 sequence (P08908 1-422): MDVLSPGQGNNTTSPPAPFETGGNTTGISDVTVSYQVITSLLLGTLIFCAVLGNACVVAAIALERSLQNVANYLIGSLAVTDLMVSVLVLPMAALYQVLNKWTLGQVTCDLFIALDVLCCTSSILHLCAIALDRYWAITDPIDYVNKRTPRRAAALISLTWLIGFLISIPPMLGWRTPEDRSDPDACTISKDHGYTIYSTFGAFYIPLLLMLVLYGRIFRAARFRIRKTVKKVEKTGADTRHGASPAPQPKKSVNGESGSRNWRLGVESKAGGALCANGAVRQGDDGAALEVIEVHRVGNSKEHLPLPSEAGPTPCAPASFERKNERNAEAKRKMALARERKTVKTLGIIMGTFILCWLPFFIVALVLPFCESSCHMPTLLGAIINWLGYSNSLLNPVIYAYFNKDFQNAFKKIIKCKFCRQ
From the text:
receptor binding assay (NIMH PDSP) on 5-HT1A

The next assay concerns the target T2, 5-HT5A (Homo sapiens, UniProt P47898).
T2 construct: gene HTR5A; cloned receptor, NIMH PDSP panel
An excerpt: receptor binding assay (NIMH PDSP) on 5-HT5A

The target of a further assay is T3, 5-HT1B (Homo sapiens, UniProt P28222).
T3 construct: gene HTR1B; cloned receptor, NIMH PDSP panel
From the text: receptor binding assay (NIMH PDSP) on 5-HT1B

Another assay has as its target T4, 5-HT7 (Homo sapiens, UniProt P34969).
T4 construct: gene HTR7; cloned receptor, NIMH PDSP panel
From the text: receptor binding assay (NIMH PDSP) on 5-HT7

A further assay concerns the target T5, 5-HT1D (Homo sapiens, UniProt P28221).
T5 construct: gene HTR1D; cloned receptor, NIMH PDSP panel
An excerpt:
receptor binding assay (NIMH PDSP) on 5-HT1D

In the next assay the target is T6, 5-HT1E (Homo sapiens, UniProt P28566).
T6 construct: gene HTR1E; cloned receptor, NIMH PDSP panel
An excerpt:
receptor binding assay (NIMH PDSP) on 5-HT1E

The target of the next assay is T7, 5-HT2B (Homo sapiens, UniProt P41595).
T7 construct: gene HTR2B; cloned receptor, NIMH PDSP panel

Another assay deals with T8, 5-HT6 (Homo sapiens, UniProt P50406).
T8 construct: gene HTR6; cloned receptor, NIMH PDSP panel
From the text: receptor binding assay (NIMH PDSP) on 5-HT6

Where two headings read alike, the source gives them in different places.

Results on 3 compounds are retold here after article PMC5577603, “Marine Inspired 2-(5-Halo-1H-indol-3-yl)-N,N-dimethylethanamines as Modulators of Serotonin Receptors: An Example Illustrating the Power of Bromine as Part of the Uniquely Marine Chemical Space” (Marine Drugs, 2017).

T3 sequence (P28222 whole entry): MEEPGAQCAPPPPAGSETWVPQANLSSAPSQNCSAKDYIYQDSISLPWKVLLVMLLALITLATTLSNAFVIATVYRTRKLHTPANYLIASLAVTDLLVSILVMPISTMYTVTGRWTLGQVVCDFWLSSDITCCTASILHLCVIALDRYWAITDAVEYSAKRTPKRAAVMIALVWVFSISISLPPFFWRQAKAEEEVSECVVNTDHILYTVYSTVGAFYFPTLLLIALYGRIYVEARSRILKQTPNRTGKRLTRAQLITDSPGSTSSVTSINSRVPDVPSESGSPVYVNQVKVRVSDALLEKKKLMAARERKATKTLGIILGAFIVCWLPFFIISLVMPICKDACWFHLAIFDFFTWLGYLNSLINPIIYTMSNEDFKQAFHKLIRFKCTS
T4 sequence (P34969 whole entry): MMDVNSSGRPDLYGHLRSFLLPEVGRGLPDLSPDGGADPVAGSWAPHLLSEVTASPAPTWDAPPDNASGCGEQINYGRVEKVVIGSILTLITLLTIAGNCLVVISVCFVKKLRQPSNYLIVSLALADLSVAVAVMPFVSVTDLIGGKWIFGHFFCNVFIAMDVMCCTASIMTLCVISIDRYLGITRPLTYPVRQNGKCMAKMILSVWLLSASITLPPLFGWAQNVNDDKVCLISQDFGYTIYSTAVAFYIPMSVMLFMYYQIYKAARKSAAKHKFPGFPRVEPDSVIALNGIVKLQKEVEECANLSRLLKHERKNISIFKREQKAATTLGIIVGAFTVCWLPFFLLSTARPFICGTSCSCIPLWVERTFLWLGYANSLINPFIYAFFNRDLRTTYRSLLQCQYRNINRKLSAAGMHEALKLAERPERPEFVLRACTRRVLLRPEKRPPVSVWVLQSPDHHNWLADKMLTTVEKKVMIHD
T8 sequence (P50406 whole entry): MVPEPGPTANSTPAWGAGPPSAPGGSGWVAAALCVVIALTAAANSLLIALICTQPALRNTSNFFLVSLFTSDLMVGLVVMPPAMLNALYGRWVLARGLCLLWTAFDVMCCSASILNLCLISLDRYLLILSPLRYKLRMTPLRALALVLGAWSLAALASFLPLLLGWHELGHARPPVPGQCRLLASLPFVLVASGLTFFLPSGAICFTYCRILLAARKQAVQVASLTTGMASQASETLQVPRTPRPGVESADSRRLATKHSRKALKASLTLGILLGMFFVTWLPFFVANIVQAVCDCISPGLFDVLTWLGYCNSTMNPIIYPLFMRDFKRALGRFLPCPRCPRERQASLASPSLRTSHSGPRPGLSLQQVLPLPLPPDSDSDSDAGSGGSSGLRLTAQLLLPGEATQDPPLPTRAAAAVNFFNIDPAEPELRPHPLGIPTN
T6 sequence (P28566 whole entry): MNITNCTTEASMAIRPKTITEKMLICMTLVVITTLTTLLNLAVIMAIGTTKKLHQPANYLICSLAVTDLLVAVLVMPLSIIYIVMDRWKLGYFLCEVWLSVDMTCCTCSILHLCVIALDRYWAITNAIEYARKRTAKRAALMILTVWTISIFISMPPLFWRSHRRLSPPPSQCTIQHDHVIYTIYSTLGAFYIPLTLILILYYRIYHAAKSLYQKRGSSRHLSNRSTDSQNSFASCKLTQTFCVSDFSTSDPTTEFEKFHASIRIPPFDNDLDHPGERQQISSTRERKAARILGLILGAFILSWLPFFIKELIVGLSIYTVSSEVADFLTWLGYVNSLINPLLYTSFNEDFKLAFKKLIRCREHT
T2 sequence (P47898 whole entry): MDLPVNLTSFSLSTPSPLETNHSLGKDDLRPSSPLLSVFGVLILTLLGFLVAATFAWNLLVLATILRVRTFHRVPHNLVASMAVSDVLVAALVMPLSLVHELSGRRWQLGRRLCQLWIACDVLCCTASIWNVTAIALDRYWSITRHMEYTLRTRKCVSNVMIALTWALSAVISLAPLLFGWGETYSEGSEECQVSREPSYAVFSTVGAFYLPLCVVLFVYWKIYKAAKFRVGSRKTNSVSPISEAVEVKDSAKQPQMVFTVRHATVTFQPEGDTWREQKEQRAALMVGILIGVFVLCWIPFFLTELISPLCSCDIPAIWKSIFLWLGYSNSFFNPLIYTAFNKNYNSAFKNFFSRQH
T5 sequence (P28221 whole entry): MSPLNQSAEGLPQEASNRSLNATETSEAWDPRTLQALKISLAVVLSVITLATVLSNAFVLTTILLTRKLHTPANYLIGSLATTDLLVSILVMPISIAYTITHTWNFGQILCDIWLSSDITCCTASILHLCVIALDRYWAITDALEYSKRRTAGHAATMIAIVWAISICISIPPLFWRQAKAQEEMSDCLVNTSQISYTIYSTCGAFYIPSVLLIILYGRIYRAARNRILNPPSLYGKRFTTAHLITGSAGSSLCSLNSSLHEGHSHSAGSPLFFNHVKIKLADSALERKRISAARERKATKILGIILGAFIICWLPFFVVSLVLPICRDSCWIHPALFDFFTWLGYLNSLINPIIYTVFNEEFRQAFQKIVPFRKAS
T7 sequence (P41595 whole entry): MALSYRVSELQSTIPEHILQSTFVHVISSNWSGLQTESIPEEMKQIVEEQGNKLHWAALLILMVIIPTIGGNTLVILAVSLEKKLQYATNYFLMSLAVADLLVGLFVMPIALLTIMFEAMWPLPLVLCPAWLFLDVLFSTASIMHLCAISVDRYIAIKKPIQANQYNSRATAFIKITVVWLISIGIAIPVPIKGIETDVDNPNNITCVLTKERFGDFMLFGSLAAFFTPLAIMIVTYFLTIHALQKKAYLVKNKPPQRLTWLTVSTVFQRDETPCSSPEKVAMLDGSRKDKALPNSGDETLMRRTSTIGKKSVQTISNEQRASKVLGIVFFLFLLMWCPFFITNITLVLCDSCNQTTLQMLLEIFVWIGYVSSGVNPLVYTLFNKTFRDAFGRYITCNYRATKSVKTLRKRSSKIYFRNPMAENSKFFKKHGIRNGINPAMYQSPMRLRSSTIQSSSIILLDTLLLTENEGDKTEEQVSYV

For `CN(C)CCc1c[nH]c2ccc(I)cc12` [2e, 2-(5-iodo-1H-indol-3-yl)-N,N-dimethylethanamine], the Ki (as a rule, a dissociation constant, usually derived from enzyme kinetics or from competition with a known ligand) amounted to 130 ± 16 nM at 5-HT1A; 1250 nM on 5-HT5A; 43 ± 5 nM on 5-HT1B; 116 ± 13 nM on 5-HT7; 8.5 ± 1.38 nM at 5-HT1D; 310 ± 33 nM at 5-HT1E. Moreover, the results for the Ki on 5-HT2B and on 5-HT6 were 98 ± 4 nM and 198 ± 20 nM, respectively.

Regarding “2-(1H-indol-3-yl)-N,N-dimethylethanamine [2a]”, on 5-HT1A (read-out: Compound 2a Ki), the Ki is 110 ± 17 nM.

Take `CN(C)CCc1c[nH]c2ccccc12` [2a, 2-(1H-indol-3-yl)-N,N-dimethylethanamine]: the Ki on 5-HT5A is above 10000 nM; on 5-HT1B, 66 ± 9 nM; at 5-HT7, 77 ± 16 nM; on 5-HT1D, 29.3 ± 3.7 nM; on 5-HT1E, above 10000 nM; at 5-HT6, 189 ± 32.5 nM.
